The results in this text go back to patent US10577363B2, “Substituted piperidine compounds” (EPIZYME, INC., priority 2014, dated 2020).

The target in the assay is SMYD3 (Homo sapiens (Human), UniProt Q9H7B4). The experiment in a line: SMYD3 biochemical assay (SPA, 3H-SAM methylation of MEKK2 protein substrate). The following applies: read-out: SMYD3 Biochem IC50 (μM)*. From the text:
S-adenosylmethionine (SAM), S-adenosylhomocysteine (SAH), Tris, Tween20, dimethylsulfoxide (DMSO), bovine skin gelatin (BSG), and Tris(2-carboxyethyl)phosphine hydrochloride solution (TCEP) were purchased from Sigma-Aldrich at the highest level of purity possible. ^3H-SAM was purchase from American Radiolabeled Chemicals with a specific activity of 80 Ci/mmol. 384-well opaque white OptiPlates and SPA beads (Perkin Elmer, catalog # RPNQ0013) were purchased from PerkinElmer.
N-terminally GST-tagged MEKK2 (MAP3K2) protein corresponding to reference sequence AAF63496.3 was purchased from Life Technologies (catalog # PV4010). This protein was expressed in High Five insect cells and purified to >85% purity. Protein identity was confirmed by MS/MS analysis after proteolytic digestion. The protein sequence used was:
Full-length human SMYD3 isoform 1 (BAB86333) was inserted into a modified pET21b plasmid containing a His6 tag and TEV and SUMO cleavage sites.
E. coli (BL21 codonplus RIL strain, Stratagene) were transformed with plasmid pEPZ553 by mixing competent cells and plasmid DNA and incubating on ice for 30 minutes followed by heat shock at 42° C. for 1 minute and cooling on ice for 2 minutes. Transformed cells were grown and selected on LB agar with 100 μg/mL ampicillin and 17 μg/mL chloramphenicol at 37° C. overnight. A single clone was used to inoculate 200 mL of LB medium with 100 μg/mL ampicillin and 17 μg/mL chloramphenicol and incubated at 37° C. on an orbital shaker at 180 rpm. Once in log growth, the culture was diluted 1:100 into 2 L of LB medium and grown until OD600 was about 0.3 after which the culture was incubated at 15° C. and 160 rpm. Once OD600 reached about 0.4, IPTG was added to a final concentration of 0.1 mM and the cells were grown overnight at 15° C. and 160 rpm. Cells were harvested by centrifugation at 8000 rpm, for 4 minutes at 4° C. and stored at −80° C. for purification.
The column was washed with Buffer B (Buffer A plus 20 mM imidazole) and His-tagged SMYD3 was eluted with Buffer C (Buffer A plus 300 mM imidazole). The His tag, TEV and SUMO cleavage sites were removed generating native SMYD3 by addition of ULP1 protein at a ratio of 1:200 (ULP1:SMYD3). Imidazole was removed by dialysis overnight in Buffer A. The dialyzed solution was applied to a second Nickel column and the native SMYD3 protein was collected from the column flow-through. The flow-through was dialyzed in Buffer D (25 mM Tris, 5% glycerol, 5 mM β-mercaptoethanol, 50 mM NaCl, pH7.8) and ULP1 was removed using a Q sepharose fast flow column.
General Procedure for SMYD3 Enzyme Assays on MEKK2 Protein Substrate
The assays were all performed in a buffer consisting of 25 mM Tris-Cl pH 8.0, 1 mM TCEP, 0.005% BSG, and 0.005% Tween 20, prepared on the day of use. […] DMSO (1 ul) was added to Columns 11, 12, 23, 24, rows A-H for the maximum signal control and 1 ul of SAH, a known product and inhibitor of SMYD3, was added to columns 11, 12, 23, 24, rows I-P for the minimum signal control. A cocktail (40 ul) containing the SMYD3 enzyme was added by Multidrop Combi (Thermo-Fisher). The compounds were allowed to incubate with SMYD3 for 30 min at room temperature, then a cocktail (10 ul) containing SAM and MEKK2 was added to initiate the reaction (final volume=51 ul). […] The assays were stopped by the addition of non-radiolabeled SAM (10 ul) to a final concentration of 100 uM, which dilutes the ^3H-SAM to a level where its incorporation into MEKK2 is no longer detectable. Radiolabeled MEKK2 was detected using a scintillation proximity assay (SPA). 10 uL of a 10 mg/mL solution of SPA beads in 0.5 M citric acid was added and the plates centrifuged at 600 rpm for 1 min to precipitate the radiolabeled MEKK2 onto the SPA beads. The plates were then read in a PerkinElmer TopCount plate reader to measure the quantity of ^3H-labeled MEKK2 as disintegrations per minute (dpm) or alternatively, referred to as counts per minute (cpm).
Regarding `C[C@H](N)C(=O)NC[C@@H](Cc1ccc(O)c(I)c1)C(=O)N1CCC(NC(=O)c2cc(C3CC3)on2)CC1` [compound 61, N-(1-((R)-3-((S)-2-aminopropanamido)-2-(4-hydroxy-3-iodobenzyl)propanoyl)piperidin-4-yl)-5-cyclopropylisoxazole-3-carboxamide], the IC50 (commonly the concentration that gives 50% inhibition) turned out to be 15.3 µM.

Regarding `C[C@H](N)C(=O)NC[C@H](Cc1ccc(O)c(I)c1)C(=O)N1CCC(NC(=O)c2cc(C3CC3)on2)CC1` [compound 62, N-(1-((S)-3-((S)-2-aminopropanamido)-2-(4-hydroxy-3-iodobenzyl)propanoyl)piperidin-4-yl)-5-cyclopropylisoxazole-3-carboxamide], the IC50 was found to be 1.33 µM.

Take `NC[C@H](Cc1ccc(O)c(Cl)c1)C(=O)N1CCC(NC(=O)c2cc(C3CC3)on2)CC1` [compound 64, (S)-N-(1-(3-amino-2-(3-chloro-4-hydroxybenzyl)propanoyl)piperidin-4-yl)-5-cyclopropylisoxazole-3-carboxamide]: the IC50 is 7.16 µM.

In the case of `C[C@H]1CN(C(=O)[C@@H](N)Cc2ccc(O)cc2)CCC1NC(=O)c1cc(C2CC2)on1` (stereo partly drawn) [compound 67, N-((3S)-1-(L-tyrosyl)-3-methylpiperidin-4-yl)-5-cyclopropylisoxazole-3-carboxamide], the IC50 amounted to 2.32 µM.

Turning to `C[C@@H]1CN(C(=O)[C@@H](N)Cc2ccc(O)cc2)CCC1NC(=O)c1cc(C2CC2)on1` (stereo partly drawn) [compound 68, N-((3R)-1-(L-tyrosyl)-3-methylpiperidin-4-yl)-5-cyclopropylisoxazole-3-carboxamide], the 50% inhibitory concentration (IC50) was determined as 1.69 µM.

Consider `C[C@H]1CC(NC(=O)c2cc(C3CC3)on2)CCN1C(=O)CCN1CCCC1` (stereo partly drawn) [compound 69, 5-cyclopropyl-N-((2S)-2-methyl-1-(3-(pyrrolidin-1-yl)propanoyl)piperidin-4-yl)isoxazole-3-carboxamide], for which the 50% inhibitory concentration (IC50) came to 12.4 µM.

For `C[C@@H]1CC(NC(=O)c2cc(C3CC3)on2)CCN1C(=O)CCN1CCCC1` (stereo partly drawn) [compound 70, 5-cyclopropyl-N-((2R)-2-methyl-1-(3-(pyrrolidin-1-yl)propanoyl)piperidin-4-yl)isoxazole-3-carboxamide], the IC50 worked out at 7.73 µM.

Take `C[C@H]1CC(NC(=O)c2cc(C3CC3)on2)CCN1C(=O)[C@H]1C[C@@H](N)C1` (stereo partly drawn) [compound 71, N-((2S)-1-((1s,3R)-3-aminocyclobutane-1-carbonyl)-2-methylpiperidin-4-yl)-5-cyclopropylisoxazole-3-carboxamide]: the IC50 is 2.54 µM.

On to `C[C@H]1CC(NC(=O)c2cc(C3CC3)on2)CCN1C(=O)[C@H]1C[C@H](N)C1` (stereo partly drawn) [compound 72, N-((2S)-1-((1r,3S)-3-aminocyclobutane-1-carbonyl)-2-methylpiperidin-4-yl)-5-cyclopropylisoxazole-3-carboxamide], for which the 50% inhibitory concentration (IC50) was found to be 2.72 µM.

For `N[C@H]1CC[C@H](C(=O)N2C3CCCC2CC(NC(=O)c2cc(C4CC4)on2)C3)CC1` (stereo partly shown) [compound 73, N-(9-((1r,4r)-4-aminocyclohexane-1-carbonyl)-9-azabicyclo[3.3.1]nonan-3-yl)-5-cyclopropylisoxazole-3-carboxamide], the IC50 turned out to be 5.35 µM.

Turning to `CCS(=O)(=O)N1CCC(NC(=O)c2cc(C3CC3)on2)C[C@H]1C` (stereo partly drawn) [compound 75, 5-cyclopropyl-N-((2R)-1-(ethylsulfonyl)-2-methylpiperidin-4-yl)isoxazole-3-carboxamide], the IC50 worked out at 7.31 µM.

With `CC[C@H]1CN(C(=O)CC2CCNCC2)CC[C@@H]1NC(=O)c1cc(C2CC2)on1` [compound 76, 5-cyclopropyl-N-((3S,4S)-3-ethyl-1-(2-(piperidin-4-yl)acetyl)piperidin-4-yl)isoxazole-3-carboxamide], the IC50 is 0.541 µM.

As for `N[C@H](Cc1ccc(O)cc1)CN1CCC(NC(=O)c2cc(C3CC3)on2)CC1` [compound 79, (R)-N-(1-(2-amino-3-(4-hydroxyphenyl)propyl)piperidin-4-yl)-5-cyclopropylisoxazole-3-carboxamide], the IC50 came out at 20.4 µM.

Take `CC1CN(C(=O)CCN)CCC1NC(=O)c1cc(C2CC2)on1` (stereo not shown) [compound 80, N-(1-(3-aminopropanoyl)-3-methylpiperidin-4-yl)-5-cyclopropylisoxazole-3-carboxamide]: the 50% inhibitory concentration (IC50) stood at 6.81 µM.

As to `C[C@@H]1CC(NC(=O)c2cc(C3CC3)on2)CCN1C(=O)CN` (stereo partly drawn) [compound 81, 5-cyclopropyl-N-((2R)-1-glycyl-2-methylpiperidin-4-yl)isoxazole-3-carboxamide], the IC50 is 22.1 µM.

Turning to `C[C@H]1C[C@@H](NC(=O)c2cc(C3CC3)on2)CCN1C(=O)CCN` [compound 82, N-((2S,4S)-1-(3-aminopropanoyl)-2-methylpiperidin-4-yl)-5-cyclopropylisoxazole-3-carboxamide], the IC50 amounted to 10.5 µM.

`C[C@H]1C[C@H](NC(=O)c2cc(C3CC3)on2)CCN1C(=O)CCN` [compound 83, N-((2S,4R)-1-(3-aminopropanoyl)-2-methylpiperidin-4-yl)-5-cyclopropylisoxazole-3-carboxamide]: the IC50 was 6.6 µM.

As to `C[C@@H]1CC(NC(=O)c2cc(C3CC3)on2)CCN1C(=O)CCN` (stereo partly drawn) [compound 84, N-((2R)-1-(3-aminopropanoyl)-2-methylpiperidin-4-yl)-5-cyclopropylisoxazole-3-carboxamide], the concentration for half-maximal inhibition (IC50) amounted to 6.14 µM.

Consider `C[C@H]1CC(NC(=O)c2cc(C3CC3)on2)CCN1C(=O)[C@@H]1CC[C@@H](N)C1` (stereo partly drawn) [compound 85, N-((2S)-1-((1R,3R)-3-aminocyclopentane-1-carbonyl)-2-methylpiperidin-4-yl)-5-cyclopropylisoxazole-3-carboxamide], for which the IC50 worked out at 2.37 µM.

In the case of `C[C@H]1CC(NC(=O)c2cc(C3CC3)on2)CCN1C(=O)[C@@H]1CC[C@H](N)C1` (stereo partly drawn) [compound 86, N-((2S)-1-((1R,3S)-3-aminocyclopentane-1-carbonyl)-2-methylpiperidin-4-yl)-5-cyclopropylisoxazole-3-carboxamide], the IC50 turned out to be 2.56 µM.

Turning to `C[C@@H]1CC(NC(=O)c2cc(C3CC3)on2)CCN1C(=O)[C@H]1C[C@@H](N)C1` (stereo partly drawn) [compound 87, N-((2R)-1-((1s,3S)-3-aminocyclobutane-1-carbonyl)-2-methylpiperidin-4-yl)-5-cyclopropylisoxazole-3-carboxamide], the IC50 was 3.25 µM.

As for `NC1CCC(C(=O)N2CCC(NC(=O)c3cc(C4CC4)on3)CC2c2ccccc2)CC1` (stereo not shown) [compound 89, N-(1-((1r,4r)-4-aminocyclohexane-1-carbonyl)-2-phenylpiperidin-4-yl)-5-cyclopropylisoxazole-3-carboxamide], the IC50 was 3.39 µM.

Take `CN[C@H]1CC[C@H](C(=O)N2CCC(NC(=O)c3cc(C4CC4)on3)C[C@@H]2C)CC1` (stereo partly drawn) [compound 90, 5-cyclopropyl-N-((2S)-2-methyl-1-((1r,4S)-4-(methylamino)cyclohexane-1-carbonyl)piperidin-4-yl)isoxazole-3-carboxamide]: the IC50 is 5.33 µM.

For `C[C@H]1CC(NC(=O)c2cc(C3CC3)on2)CCN1C(=O)CN1CCNCC1` (stereo partly drawn) [compound 91, 5-cyclopropyl-N-((2S)-2-methyl-1-(2-(piperazin-1-yl)acetyl)piperidin-4-yl)isoxazole-3-carboxamide], the IC50 amounted to 3.91 µM.

For `C[C@@H]1CC(NC(=O)c2cc(C3CC3)on2)CCN1C(=O)CN1CCNCC1` (stereo partly drawn) [compound 92, 5-cyclopropyl-N-((2R)-2-methyl-1-(2-(piperazin-1-yl)acetyl)piperidin-4-yl)isoxazole-3-carboxamide], the IC50 was 0.778 µM.
